The text below walks through data of patent US5386030A, “Antiviral (phosphonomethoxy)methoxy purine/pyrimidine derivatives” (Institute of Organic Chemistry and Biochemistry of the …, priority 1993, dated 1995).

≈ marks a conversion by molar mass, not a printed value. Where a name gives a salt, the structure may show the parent alone. Read-outs that look alike come from different tables or passages of the source.

The test system of one assay is HSV-1. Kind of assay: plaque reduction assay, HSV-1 (vero cells). The following applies: for IC50: 48 h, read-out: ID50 HSV-1. Format: cell-based, herpes simplex virus I. As for the experimental part: (§1) Herpes simplex virus (HSV) strains were grown and titered at 37° C. in vero cells (African Green Monkey Kidney cells) and used for virus work before the tenth passage.
(§2) Cells were grown and maintained in Earle's Minimum Essential Medium (EMEM), Gibco Laboratories, supplemented with 0.75% sodium bicarbonate, 2 mM 1-glutamine, Pen-strep. and 5-10% fetal calf serum.
(§3) The titer of HSV strains is determined by a plaque titration method (Roizman and Roane, Virology, 115: 75-79, 1961). Tissue culture 24-well petri dishes are seeded with cells and used for assays when approximately 75% monolayer. Volumes (0.1 ml) of logarithmic dilutions of the virus strain are inoculated onto each of triplicate wells, and absorbed for one hour with intermittent shaking. The inoculum thereafter is removed, and 1 ml of 5-10% EMEM containing 0.3% human immune serum globulin is added. After a 48 hour incubation period at 37° C. in a 5% CO2 atmosphere, the overlay medium is removed and the cell sheets stained with Giemsa stain. The number of plaques is counted, the triplicate is averaged, and the number of plaque-forming units per ml is calculated.
The compounds are tested for activity against the herpes simplex stains using a stock solution of each compound freshly prepared. Appropriate dilution of each compound are made in 10% EMEM before usage. The antiviral efficacy of each compound is determined using the plaque reduction assay described above. Briefly, tissue culture 24-well plates, with approximately 50 plaque forming units of HSV per 0.1 ml, and the virus absorbed for 1 hour, with intermittent shaking. After removal of the inoculum, 1 ml of 10% EMEM containing two-fold dilutions of the appropriate drug are added in triplicates. Triplicate wells/plate receives no drug and are used as a virus control. After a 48-hour incubation period, at 37° C. in a 5% CO2 atmosphere, the overlay medium is removed, the cells are stained as described above, and plaques are counted. The counts of triplicate wells are averaged, and the number of plaques in the presence of each drug dilution are calculated. […]
(Plaque reduction counts the foci of infection that form in a cell layer.)

For another assay, the system named is HSV-2. Kind of assay: plaque reduction assay, HSV-2 (vero cells). It is filed as cell-based, herpes simplex virus II. The settings on record: for IC50: 48 h. As for the experimental part: as §1, §2, §3
(§4) The compounds are tested for activity against the herpes simplex stains using a stock solution of each compound freshly prepared. Appropriate dilution of each compound are made in 10% EMEM before usage. The antiviral efficacy of each compound is determined using the plaque reduction assay described above. Briefly, tissue culture 24-well plates, with approximately 50 plaque forming units of HSV per 0.1 ml, and the virus absorbed for 1 hour, with intermittent shaking. After removal of the inoculum, 1 ml of 10% EMEM containing two-fold dilutions of the appropriate drug are added in triplicates. Triplicate wells/plate receives no drug and are used as a virus control. After a 48-hour incubation period, at 37° C. in a 5% CO2 atmosphere, the overlay medium is removed, the cells are stained as described above, and plaques are counted. The counts of triplicate wells are averaged, and the number of plaques in the presence of each drug dilution are calculated.
(§5) The antiviral potency of the drug is determined by ID50, the drug concentration necessary to reduce the number of plaques by 50% of those in the virus control cultures.

The subject of the next assay is HCMV. Kind of assay: plaque reduction assay, HCMV strain AD169 (MRC-5 cells). It is filed as cell-based, Human cytomegalovirus (strain AD169). The following applies: for IC50: read-out: ID50 HCMV. As for the experimental part: as §4
Human cytomegalovirus (HCMV) (strain AD169) was grown and titered at 37° C. in human embryonic lung (diploid) cells, MRC-5. The activity of compounds against HCMV was determined by using the procedure for the plaque reduction assay described above.
as §5

Another assay concerns MuLV. The experiment in a line: UV-XC plaque assay, MuLV (SC-1 cells). Format: cell-based, murine leukemia virus. The settings on record: for IC50: Murine leukemia virus. As for the experimental part: The compounds were evaluated for antiviral activity against murine leukemia virus (MuLV) strains using the UV-XC plaque assay (Rowe, et al., Virology, 42: 1136, 1970).
The MuLV strains were grown in feral mouse cells (SC-1) and used for antiviral tests using the UV-XC plaque assay. Briefly, SC-1 cells are grown as monolayers in 4-well tissue culture plates and inoculated with approximately 50-100 plaque forming units of MuLV in 0.5 ml of 5% EMEM containing 20 μg/ml DEAE/Dextran. After 1 hour adsorption, the inoculum is removed and 5 ml of 5% EMEM containing three-fold dilutions of the appropriate drug are added. Five days later, the cultures are UV-irradiated with an ultraviolet lamp and rat XC sarcoma cells are added to the cultures. Three-four days after UV-irradiation, the cell cultures are stained with Giemsa stain and the plaques are enumerated. Antiviral activity is expressed in terms of the reduction in the mean number of UV-XC plaques counted in the drug treated, virus-infected cultures compared with mean number of plaques counted in untreated, virus-infected control cultures.
as §5

A further assay deals with herpes simples virus-2. Kind of assay: survival of mice inoculated with herpes simplex virus-2. Format: in vivo. As to the method: A preferred example of one of these compounds, known as (S)-HPMPA (Formula V) was disclosed by DeClercq, et al., in Nature, 323: 464-467 (1986) and earlier by Holy, et al, Nucleic Acids Research, Symposium Series No. 14, pp. 277-278 (1984). Phosphonate compounds which are HPMPA analogs are described in South African Patent 1987/8607. […] In a 21 day protocol 30% of a group of animals treated i.p. with 50 mg/kg/day of (S)-HPMPA survived. [drawing 5]

Where [1] appears, read: Human alphaherpesvirus 2, Table 2, drug concentration reducing plaques by 50%, vero cells, read-out: ID50 HSV-2.
Where [2] appears, read: Human betaherpesvirus 5, MRC5, 48 h, Table 2, strain AD169, MRC-5 cells.
The mark [3] stands for this setting: SC1, Table 2, UV-XC plaque assay, SC-1 cells, read-out: ID50 MULV.

In the case of `N.Nc1nc2c(ncn2OCOCP(=O)(O)O)c(=O)[nH]1` [Compound 14, 9-[(Phosphonomethoxy)methoxy]guanine ammonium salt], the IC50 with HSV-1 (Human alphaherpesvirus 1, Vero) worked out at 2.2 µg/mL; in the assay with HSV-2 (Human alphaherpesvirus 2, Vero, read-out: ID50 HSV2), 1.3 µg/mL; in the assay on HCMV (Human betaherpesvirus 5, AD169, MRC5, 48 h) it was 0.2 µg/mL. In addition, the “HSV-1 activity (in words)” value with HSV-1 (compared with ACV) is “comparable to acyclovir (ACV)”. In addition, the “HSV-2 activity (in words)” value with HSV-2 was “comparable to acyclovir (ACV)”.
With `Nc1nc2c(ncn2COC(CO)CO)c(=O)[nH]1` [DHPG, reference compound], the IC50 in the assay on HSV-2 (setting [1]) was 0.2 µg/mL (≈ 0.784 µM); in the assay on HCMV (setting [2]), 0.4 µg/mL (≈ 1.57 µM); with MuLV (setting [3]), greater than 100 µg/mL.
On to `Nc1ncnc2c1ncn2C[C@@H](CO)OCP(=O)(O)O` [(S)-HPMPA], for which the animals survived in the assay with herpes simples virus-2 (HSV-2, i.p., 50 mg/kg/day, 21 day protocol) came to 30%. The “activity in mice inoculated with herpes simplex virus-2 (in words)” value with herpes simples virus-2 (HSV-2, in applicant's hands) is reported as “only slightly active”.
For `Nc1nc2c(ncn2COCCO)c(=O)[nH]1` [ACV, acyclovir, reference compound], the IC50 with HSV-1 (Human alphaherpesvirus 1, Table 1, drug concentration reducing plaques by 50%, vero cells) was 0.6 µg/mL (≈ 2.66 µM); in the assay with HSV-2 (Human alphaherpesvirus 2, Table 1, drug concentration reducing plaques by 50%, vero cells, read-out: ID50 HSV2), 0.7 µg/mL (≈ 3.11 µM); in the assay with HSV-2 (setting [1]), 0.35 µg/mL (≈ 1.55 µM); in the assay on HCMV (Human betaherpesvirus 5, MRC5, 48 h, Table 1, strain AD169, MRC-5 cells) it was 40 µg/mL (≈ 178 µM); with MuLV (setting [3]), greater than 100 µg/mL.
In the case of `Nc1ncnc2c1ncn2OC(CO)OCP(=O)(O)O` (centres unmarked) [Compound 21, ammonium salt], the IC50 with HSV-2 (setting [1]) is 2.6 µg/mL; with HCMV (setting [2]) it was 1 µg/mL; in the assay with MuLV (setting [3]) it was 1.5 µg/mL. The “HCMV activity (in words)” value in the assay with HCMV (compared with DHPG) is on record as “comparable to DHPG”.
For `N.Nc1ncnc2c1ncn2OCOCP(=O)(O)O` [Compound 4, 9-[(Phosphonomethoxy)methoxy]adenine ammonium salt], in the assay on HSV-2, the “HSV-2 activity (in words)” value is listed as “little activity”. Further, the IC50 is greater than 100 µg/mL with HSV-2 (Human alphaherpesvirus 2, Vero, read-out: ID50 against HSV-2) and 1.5 µg/mL in the assay with MuLV (SC-1, read-out: ID50 against MuLV). For the same compound, the “activity against MuLV (in words)” value in the assay with MuLV is reported as “good activity”.
